We go through twelve compounds from ChEMBL document CHEMBL1201862, “PubChem BioAssay data set” (2004).

Test systems include 786-0; HOP-62; SK-MEL-5; CAKI-1; SNB-75; U-251; UO-31; HOP-92; OVCAR-5; NCI-H460; OVCAR-4; UACC-62; NCI-H23; SR; UACC-257; T47D; MDA-MB-435; MDA-N; HCC 2998.
Common to all, as to test: growth of human tumour cells (NCI), 48 h

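Test compounds were applied to cells in 96-well plates for 48 hours at 5 doses. Abbreviation: GI50, concentration required for 50% inhibition of growth.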 The source made the active and inactive calls. Cut-off read from the data, not from the text of the source: active = GI50 up to about 1.1 µM and inactive = higher.

In the case of `COc1cc2cnc(-c3ccccc3)cc2cc1OC`, the GI50 was 36.4 µM (inactive) with 786-0; 56.1 µM (inactive) in the assay with HOP-62; 11.8 µM (inactive) in the assay on SK-MEL-5; 20.7 µM (inactive) in the assay with CAKI-1; 41.1 µM (inactive) in the assay on SNB-75; 19.8 µM (inactive) in the assay with U-251. Also, the GI50 is 29.5 µM (inactive) in the assay with UO-31; 17.5 µM (inactive) in the assay on HOP-92; 33.2 µM (inactive) in the assay with OVCAR-5; 32.2 µM (inactive) in the assay on NCI-H460; 24.3 µM (inactive) in the assay on OVCAR-4; 10 µM (inactive) in the assay with UACC-62. Moreover, the GI50 is 20.9 µM (inactive) in the assay with NCI-H23; 16.8 µM (inactive) in the assay with SR; 22.8 µM (inactive) with UACC-257; 26.7 µM (inactive) in the assay on T47D; 26.9 µM (inactive) in the assay with MDA-MB-435.

Regarding `C[C@]12CC[C@H]3[C@@H](CCC4=C/C(=N/OCCN5CCCCC5)CC[C@@]43C)[C@@H]1CC[C@@H]2O`, the GI50 in the assay with 786-0 was 19.3 µM (inactive); in the assay on HOP-62, 14.1 µM (inactive); with SK-MEL-5, 8.63 µM (inactive); in the assay with CAKI-1, 28.8 µM (inactive); in the assay with SNB-75, 7.26 µM (inactive); in the assay on U-251, 13.3 µM (inactive). For the same compound, the GI50 with UO-31 was 12.2 µM (inactive); in the assay with MDA-N it was 15 µM (inactive); in the assay with OVCAR-5, 16.1 µM (inactive); in the assay with OVCAR-4, 13.9 µM (inactive); with UACC-62, > 10 µM (inactive); in the assay on HCC 2998, 14.4 µM (inactive). The GI50 was 13.7 µM (inactive) in the assay with NCI-H23, 17.2 µM (inactive) in the assay on UACC-257, 28 µM (inactive) with T47D and 7.66 µM (inactive) in the assay with MDA-MB-435.

As to `c1ccc2c(c1)N[C@@H]1c3[nH]c4ccccc4c3CC[C@H]21`, the GI50 in the assay with 786-0 is 15.1 µM (inactive); in the assay on HOP-62 it was 13.3 µM (inactive); in the assay with SK-MEL-5, 14.3 µM (inactive); in the assay on CAKI-1 it was 18.2 µM (inactive); with SNB-75, 1.3 µM (inactive); in the assay with U-251 it was 14.2 µM (inactive). Moreover, the GI50 in the assay with UO-31 was 17.7 µM (inactive); in the assay with MDA-N, 19.6 µM (inactive); in the assay with HOP-92 it was 14.4 µM (inactive); in the assay on OVCAR-5 it was 13.2 µM (inactive); with NCI-H460, 16.8 µM (inactive); in the assay on UACC-62, 17.6 µM (inactive). The GI50 is 15.8 µM (inactive) in the assay with NCI-H23, 26.9 µM (inactive) in the assay with UACC-257, 16.7 µM (inactive) with T47D and 17.3 µM (inactive) in the assay on MDA-MB-435.

Regarding `COc1ccc2c(=O)c(-c3cc4c(cc3OC)OCO4)coc2c1`, the GI50 was 60.1 µM (inactive) in the assay on 786-0; 41.9 µM (inactive) in the assay on HOP-62; > 100 µM (inactive) in the assay on SK-MEL-5; 51.8 µM (inactive) with CAKI-1; 93.3 µM (inactive) with SNB-75; 59.2 µM (inactive) in the assay with U-251. The GI50 with UO-31 is > 100 µM (inactive); in the assay on HOP-92, 32.9 µM (inactive); with OVCAR-5, > 100 µM (inactive); in the assay with NCI-H460, > 100 µM (inactive); in the assay on OVCAR-4, > 100 µM (inactive); in the assay on UACC-62 it was > 100 µM (inactive). In addition, the GI50 with HCC 2998, with NCI-H23, with SR, in the assay on UACC-257 and in the assay on T47D was > 100 µM (inactive) in each case.

As to `Cc1nn(C(=O)Cc2ccccc2)c2c1C(c1ccccc1O)SC(=N)N2` (centres undefined), the GI50 in the assay on 786-0, in the assay with HOP-62, with SK-MEL-5, in the assay with CAKI-1, in the assay on SNB-75 and with UO-31 was > 100 µM (inactive) each time. Besides, the GI50 in the assay on NCI-H460, in the assay with UACC-62, with HCC 2998, in the assay on NCI-H23, with SR and in the assay on UACC-257 was > 100 µM (inactive) each time. Further, the GI50 in the assay with T47D and in the assay on MDA-MB-435 was > 100 µM (inactive) in each case.

Turning to `NC(=S)N/N=C1\CCCCC1C(O)(C(F)(F)Cl)C(F)(F)Cl` (centres undefined), the GI50 in the assay on 786-0, in the assay on HOP-62, with SK-MEL-5, with SNB-75, with U-251 and in the assay with MDA-N was > 10 µM (inactive) each time. Also, the GI50 in the assay on HOP-92, in the assay with OVCAR-5, in the assay on NCI-H460, in the assay with OVCAR-4, in the assay with UACC-62 and in the assay on HCC 2998 was > 10 µM (inactive) each time. The GI50 in the assay on NCI-H23, in the assay on UACC-257, in the assay on T47D and in the assay with MDA-MB-435 was > 10 µM (inactive) each time.

With `C1CCSCCCCSCCCCSCCCCSC1`, the GI50 was > 100 µM (inactive) in the assay on 786-0; > 100 µM (inactive) in the assay with HOP-62; > 100 µM (inactive) in the assay on SK-MEL-5; > 100 µM (inactive) with CAKI-1; 64 µM (inactive) with SNB-75; > 100 µM (inactive) in the assay with U-251. The GI50 with UO-31, with MDA-N, in the assay on HOP-92, in the assay on OVCAR-5, in the assay with NCI-H460 and in the assay with OVCAR-4 was > 100 µM (inactive) each time. For the same compound, the GI50 in the assay on UACC-62, in the assay on HCC 2998, in the assay with NCI-H23, with UACC-257, in the assay with T47D and with MDA-MB-435 was > 100 µM (inactive) in each case.

For `CCc1n[nH]c(=O)n1N`, the GI50 in the assay with 786-0, in the assay on HOP-62, in the assay with SK-MEL-5, in the assay on CAKI-1, in the assay on SNB-75 and with U-251 was > 100 µM (inactive) in each case. The GI50 in the assay on UO-31, in the assay with HOP-92, in the assay on OVCAR-5, in the assay on NCI-H460, with OVCAR-4 and with UACC-62 was > 100 µM (inactive) throughout. The GI50 with HCC 2998, with NCI-H23, with SR, in the assay with UACC-257, with T47D and in the assay on MDA-MB-435 was > 100 µM (inactive) throughout.

As to `O=C(CCc1nnc(S)[nH]1)Nc1cc(Cl)c(Cl)cc1Cl`, the GI50 was > 100 µM (inactive) with 786-0; > 100 µM (inactive) in the assay on HOP-62; > 100 µM (inactive) in the assay on SK-MEL-5; > 100 µM (inactive) in the assay with CAKI-1; 25.4 µM (inactive) with SNB-75; > 100 µM (inactive) in the assay on U-251. For the same compound, the GI50 in the assay with UO-31, in the assay with HOP-92, with OVCAR-5, in the assay on NCI-H460, in the assay on OVCAR-4 and in the assay on UACC-62 was > 100 µM (inactive) throughout. In addition, the GI50 in the assay with HCC 2998, in the assay with NCI-H23 and in the assay with UACC-257 was > 100 µM (inactive) in each case.

Consider `COc1cc(/C=C2/C[C@H]3[C@@H]4CCC5=CC(=O)CC[C@]5(C)[C@H]4CC[C@]3(C)NC2=O)cc(OC)c1OC`, for which the GI50 was 48.6 µM (inactive) in the assay on 786-0; 27.9 µM (inactive) in the assay with HOP-62; 11.9 µM (inactive) in the assay on SK-MEL-5; 25.9 µM (inactive) with CAKI-1; 15.6 µM (inactive) in the assay with SNB-75; 19.5 µM (inactive) in the assay with U-251. Moreover, the GI50 with UO-31 is 0.9 µM (active); in the assay on MDA-N, 26.4 µM (inactive); with HOP-92, 11.2 µM (inactive); with OVCAR-5, 13.1 µM (inactive); with NCI-H460, 28.4 µM (inactive); with OVCAR-4, 39.4 µM (inactive). For the same compound, the GI50 was 23.1 µM (inactive) with UACC-62; 21.1 µM (inactive) in the assay on HCC 2998; 21.3 µM (inactive) in the assay with NCI-H23; 20.7 µM (inactive) with UACC-257; 13 µM (inactive) with T47D; 19.5 µM (inactive) in the assay with MDA-MB-435.

Regarding `[N-]=[N+]=Nc1ccc2c(c1)Sc1ccccc1N2CCCCN1CCN(Cc2ccc(C(=O)c3ccc(CSCC(N)C(=O)O)cc3)cc2)CC1` (centres undefined), the GI50 with 786-0 is 12.1 µM (inactive); with HOP-62, 23.9 µM (inactive); in the assay on SK-MEL-5, 13.8 µM (inactive); in the assay with CAKI-1 it was 20.7 µM (inactive); in the assay on U-251, 11.1 µM (inactive); in the assay on UO-31 it was 37.4 µM (inactive). Further, the GI50 in the assay with MDA-N is 12.8 µM (inactive); in the assay with HOP-92 it was 9.84 µM (inactive); in the assay with OVCAR-5, 52.4 µM (inactive); in the assay with NCI-H460 it was 34.8 µM (inactive); in the assay with OVCAR-4, > 100 µM (inactive); in the assay with UACC-62, 11.3 µM (inactive). Besides, the GI50 was 24.9 µM (inactive) in the assay on HCC 2998, 31.3 µM (inactive) with NCI-H23, 22.8 µM (inactive) with UACC-257 and 1.59 µM (inactive) in the assay with MDA-MB-435.

For `COc1cc2c(cc1OCCCCOc1cc(-c3ccc(F)cc3)nc(C)n1)N=C[C@@H]1CCCN1C2=O`, the GI50 with 786-0 was 0.486 µM (active); with HOP-62, 0.451 µM (active); with SK-MEL-5 it was 0.593 µM (active); in the assay on CAKI-1, 0.313 µM (active); in the assay on SNB-75, 0.723 µM (active); in the assay on U-251 it was 0.2 µM (active). Moreover, the GI50 with UO-31 was 0.5 µM (active); with HOP-92 it was 0.443 µM (active); in the assay with OVCAR-5 it was 0.272 µM (active); with NCI-H460 it was 0.413 µM (active); in the assay on OVCAR-4, 0.26 µM (active); in the assay on UACC-62, 0.378 µM (active). The GI50 is 0.029 µM (active) in the assay with HCC 2998; 0.468 µM (active) with NCI-H23; 0.16 µM (active) with SR; 0.692 µM (active) in the assay on UACC-257; 0.294 µM (active) in the assay with T47D; 0.652 µM (active) with MDA-MB-435.
